Data: paper PMC9081605, “A High-Throughput Toxicity Screen of 42 Per- and Polyfluoroalkyl Substances (PFAS) and Functional Assessment of Migration and Gene Expression in Human Placental Trophoblast Cells” (Frontiers in Toxicology, 2022)
Entries after “also recorded” stand apart in the source; their conditions may differ.

Tested on: JEG-3 cells
Experiment: Gene expression, custom NanoString code set of 46 genes
Format: cell-based, human
Description: JEG-3 cells were seeded at a density of 80,000 cells per well in six well plates and allowed to adhere overnight (24 h). The following day, media was removed and replaced with exposure media, then returned to the incubator for 24 h. The test compounds included non-cytotoxic concentrations of PFOA (0, 1, and 100 µM) and GenX (0, 3, 300 µM). These test compounds were selected a priori due to their high public health relevance. Each 6 well plate contained the three concentrations for either PFOA or GenX, with each condition in technical duplicate. Plates containing these PFOA or GenX exposure conditions were replicated three times (N = 3). After 24 h, exposure media was aspirated and cells were washed in ice cold 1xPBS, which was then aspirated. Each well received 500 µl of TRIzol reagent (Thermo Fisher Scientific, MA, United States) and cells were harvested in the TRIzol using a cell scraper. Technical duplicate wells within a plate were combined to generate a single sample of ∼1,000 µl. RNA was isolated from the resulting cellular homogenate using RNeasy Mini Kits (Qiagen, Hilden, Germany). Isolated RNA quality was validated and concentration determined using a NanoDrop 2000 (Thermo Fisher Scientific, MA, United States). 100 ng of mRNA from each sample was then analyzed using a custom gene expression code set (NanoString, Seattle, WA, United States). The custom code set included 46 genes selected for their downstream involvement in placental development (e.g., WNT4), endocrine signaling (e.g., CYP19A1), fetal growth/nutrient sensing (e.g., IGF2), inflammation (e.g., IL6), oxidative stress (e.g., SOD1, GPX1), and xenobiotic transport/metabolism (e.g., ABCG2, MRP3).
Gene expression data were quantified using the nCounter Digital Analyzer (NanoString, Seattle, WA, United States) and raw and adjusted counts were generated with nSolver (v4.0) software (NanoString, Seattle, WA, United States). Data were adjusted utilizing the manufacturer’s positive and negative experimental control probes, as well as housekeeping genes (ACTA2, ACTB, B2M, LDHA, RNA18S5, and ROLYR2L). All samples passed nSolver’s initial QA/QC controls and replicates were very well correlated with R ^2 values greater than 0.99. Adjusted data were then imported into Partek v7.0 (St. Louis, MO, United States), log2 transformed and quantile normalized for further QA/QC and statistical analyses. Genes with mRNA counts below the detection threshold of 20 were removed due to suboptimal probe hybridization (N = 2 genes for GenX; GH2 and IGFBP5). Fold change values were analyzed by ANOVA with post hoc false discovery rate adjustment (FDR) of p < 0.1. Normalized gene expression values were visualized using pheatmap with Euclidean clustering of genes and concentration groups ([Kolde and Kolde, 2015]).

`O=C(O)C(F)(F)C(F)(F)C(F)(F)C(F)(F)C(F)(F)C(F)(F)C(F)(F)F` [Perfluorooctanoic acid] was tested, and the “11BHSD2 gene expression, fold change over untreated control” value (1 µM, 24 h) was -1.06, the “17BHSD1 gene expression, fold change over untreated control” value (1 µM, 24 h) was -1.02 and the “ABCG2 gene expression, fold change over untreated control” value (1 µM, 24 h) was -1.07. The “AHR gene expression, fold change over untreated control” value (1 µM, 24 h) was -1.09, the “AHRR gene expression, fold change over untreated control” value (1 µM, 24 h) was “significantly altered” and the “CAT gene expression, fold change over untreated control” value (1 µM, 24 h) was 1.02. The “CGB5 gene expression, fold change over untreated control” value (1 µM, 24 h) was 1.00, the “COX2 gene expression, fold change over untreated control” value (1 µM, 24 h) was -1.11 and the “CTNNB1 gene expression, fold change over untreated control” value (1 µM, 24 h) was 1.00. For the same molecule, the “CYP1A1 gene expression, fold change over untreated control” value (1 µM, 24 h) was 1.05, the “CYP3A5 gene expression, fold change over untreated control” value (1 µM, 24 h) was 1.28 and the “CYP3A7 gene expression, fold change over untreated control” value (1 µM, 24 h) was 1.15. The “CYP19A1 gene expression, fold change over untreated control” value (1 µM, 24 h) was -1.05, the “EGFR gene expression, fold change over untreated control” value (1 µM, 24 h) was 1.07 and the “ENG gene expression, fold change over untreated control” value (1 µM, 24 h) was 1.02. The “ESRRA gene expression, fold change over untreated control” value (1 µM, 24 h) was 1.00, the “ESRRG gene expression, fold change over untreated control” value (1 µM, 24 h) was -1.04 and the “GH2 gene expression, fold change over untreated control” value (1 µM, 24 h) was 1.02. For the same molecule, the “GHR gene expression, fold change over untreated control” value (1 µM, 24 h) was 1.00, the “GPER1 gene expression, fold change over untreated control” value (1 µM, 24 h) was 1.02 and the “GPX1 gene expression, fold change over untreated control” value (1 µM, 24 h) was 1.00. The “HIF1A gene expression, fold change over untreated control” value (1 µM, 24 h) was 1.00, the “IGF2 gene expression, fold change over untreated control” value (1 µM, 24 h) was 1.00 and the “IGFBP5 gene expression, fold change over untreated control” value (1 µM, 24 h) was -1.13. For the same molecule, the “IGFR1 gene expression, fold change over untreated control” value (1 µM, 24 h) was 1.03, the “IGFR2 gene expression, fold change over untreated control” value (1 µM, 24 h) was 1.05 and the “IL6 gene expression, fold change over untreated control” value (1 µM, 24 h) was -1.05. The “MRP1 gene expression, fold change over untreated control” value (1 µM, 24 h) was -1.03, the “MRP2 gene expression, fold change over untreated control” value (1 µM, 24 h) was 1.09 and the “MRP3 gene expression, fold change over untreated control” value (1 µM, 24 h) was -1.08. The “NFKB1 gene expression, fold change over untreated control” value (1 µM, 24 h) was 1.00, the “NFKB2 gene expression, fold change over untreated control” value (1 µM, 24 h) was 1.00 and the “NR3C1 gene expression, fold change over untreated control” value (1 µM, 24 h) was 1.09. The “PGF gene expression, fold change over untreated control” value (1 µM, 24 h) was 1.00, the “PMM1 gene expression, fold change over untreated control” value (1 µM, 24 h) was -1.03 and the “ROLYR2L gene expression, fold change over untreated control” value (1 µM, 24 h) was 1.00. For the same molecule, the “SLC2A1 gene expression, fold change over untreated control” value (1 µM, 24 h) was -1.02, the “SOD1 gene expression, fold change over untreated control” value (1 µM, 24 h) was 1.00 and the “TGFB1 gene expression, fold change over untreated control” value (1 µM, 24 h) was 1.00. For the same molecule, the “VEGFA gene expression, fold change over untreated control” value (1 µM, 24 h) was 1.00, the “VEGFB gene expression, fold change over untreated control” value (1 µM, 24 h) was -1.00 and the “WNT4 gene expression, fold change over untreated control” value (1 µM, 24 h) was 1.25. For the same molecule, the “WNT6 gene expression, fold change over untreated control” value (1 µM, 24 h) was -1.04, the “WNT7B gene expression, fold change over untreated control” value (1 µM, 24 h) was 1.06 and the “mTOR gene expression, fold change over untreated control” value (1 µM, 24 h) was 1.00. For the same molecule, the “11BHSD2 gene expression, fold change over untreated control” value (100 µM, 24 h) was -1.03, the “AHR gene expression, fold change over untreated control” value (100 µM, 24 h) was 1.08 and the “AHRR gene expression, fold change over untreated control” value (100 µM, 24 h) was 1.00. The “CAT gene expression, fold change over untreated control” value (100 µM, 24 h) was -1.06, the “CGB5 gene expression, fold change over untreated control” value (100 µM, 24 h) was -1.15 and the “COX2 gene expression, fold change over untreated control” value (100 µM, 24 h) was 1.03. The “CTNNB1 gene expression, fold change over untreated control” value (100 µM, 24 h) was 1.00, the “CYP1A1 gene expression, fold change over untreated control” value (100 µM, 24 h) was 1.18 and the “CYP2E1 gene expression, fold change over untreated control” value (100 µM, 24 h) was 1.00. For the same molecule, the “CYP3A5 gene expression, fold change over untreated control” value (100 µM, 24 h) was -1.18, the “CYP3A7 gene expression, fold change over untreated control” value (100 µM, 24 h) was -1.22 and the “CYP19A1 gene expression, fold change over untreated control” value (100 µM, 24 h) was 1.00. The “EGFR gene expression, fold change over untreated control” value (100 µM, 24 h) was -1.07, the “ENG gene expression, fold change over untreated control” value (100 µM, 24 h) was -1.19 and the “ESRRA gene expression, fold change over untreated control” value (100 µM, 24 h) was 1.00. The “ESRRG gene expression, fold change over untreated control” value (100 µM, 24 h) was -1.16, the “GH2 gene expression, fold change over untreated control” value (100 µM, 24 h) was 1.12 and the “GHR gene expression, fold change over untreated control” value (100 µM, 24 h) was 1.15. For the same molecule, the “GPER1 gene expression, fold change over untreated control” value (100 µM, 24 h) was -1.05, the “GPX1 gene expression, fold change over untreated control” value (100 µM, 24 h) was “non-significant trend of decreased expression” and the “HIF1A gene expression, fold change over untreated control” value (100 µM, 24 h) was 1.00. For the same molecule, the “IGF2 gene expression, fold change over untreated control” value (100 µM, 24 h) was -1.00, the “IGFBP5 gene expression, fold change over untreated control” value (100 µM, 24 h) was -1.02 and the “IGFR1 gene expression, fold change over untreated control” value (100 µM, 24 h) was 1.08. The “IGFR2 gene expression, fold change over untreated control” value (100 µM, 24 h) was “significantly altered”, the “IL6 gene expression, fold change over untreated control” value (100 µM, 24 h) was 1.10 and the “MRP1 gene expression, fold change over untreated control” value (100 µM, 24 h) was -1.06. For the same molecule, the “MRP2 gene expression, fold change over untreated control” value (100 µM, 24 h) was -1.03, the “MRP3 gene expression, fold change over untreated control” value (100 µM, 24 h) was -1.12 and the “NFKB1 gene expression, fold change over untreated control” value (100 µM, 24 h) was 1.03. For the same molecule, the “NFKB2 gene expression, fold change over untreated control” value (100 µM, 24 h) was 1.00, the “NR3C1 gene expression, fold change over untreated control” value (100 µM, 24 h) was 1.00 and the “PGF gene expression, fold change over untreated control” value (100 µM, 24 h) was -1.00. For the same molecule, the “PMM1 gene expression, fold change over untreated control” value (100 µM, 24 h) was 1.07, the “ROLYR2L gene expression, fold change over untreated control” value (100 µM, 24 h) was 1.00 and the “SLC2A1 gene expression, fold change over untreated control” value (100 µM, 24 h) was -1.11. The “SOD1 gene expression, fold change over untreated control” value (100 µM, 24 h) was 1.00, the “TGFB1 gene expression, fold change over untreated control” value (100 µM, 24 h) was -1.18 and the “VEGFA gene expression, fold change over untreated control” value (100 µM, 24 h) was 1.08. For the same molecule, the “VEGFB gene expression, fold change over untreated control” value (100 µM, 24 h) was -1.04, the “WNT4 gene expression, fold change over untreated control” value (100 µM, 24 h) was “significantly altered” and the “WNT6 gene expression, fold change over untreated control” value (100 µM, 24 h) was -1.02. The “WNT7B gene expression, fold change over untreated control” value (100 µM, 24 h) was 1.06, the “mTOR gene expression, fold change over untreated control” value (100 µM, 24 h) was 1.00 and the “17BHSD1 gene expression, fold change over untreated control” value (100 µM, 24 h, listed as PFOA) was “significantly altered; also recorded: significant increase”. The “ABCG2 gene expression, fold change over untreated control” value (100 µM, 24 h, listed as PFOA) was “upregulation; also recorded: significantly altered” and the “lowest concentration inducing significant dysregulated expression of placental genes” value (after 24 h of exposure) was 1 µM.
